Results: US20070015813A1, “Treatment of protein folding disorders” (QUEEN'S UNIVERSITY AT KINGSTON, priority 2005, published 2007)

What was measured:
[1] = biological target: T1, tau441 (Homo sapiens, UniProt P10636); test: Kinetic Thioflavin S (ThS) assay of tau441 aggregation; assay type: biochemical; settings: for tau aggregation in the absence of heparin inducer: heparin omitted
T1 construct: (expression construct); host or cells: E. coli BL21 D3
Procedure: The tau441 expression construct [L Buee et al. (2000). Brain Research Reviews 33:95-130] was purchased (Bioclon Inc., San Diego, Calif.) already transformed in BL21 D3 bacterial cells (Novagen/EMD Biosciences) for protein expression. Cells were grown and induced with IPTG according to Novagen's protocol. To lyse cells, Cellytic B reagent (Sigma) was used with lysozyme protease inhibitors (Sigma) and benzonase (Novagen/EMD Biosciences), according to manufacturer's methods. Lysate was cleared by centrifugation for 20 min at 10,000 RPM (SS34 rotor, Sorvall RC2b centrifuge) at 4° C. Protein was purified from the soluble fraction. Once purified, tau441 was stored at −78° C. as frozen aliquots (8.3 mg/mL, 60 μL) in Tris-HCl (50 mM, pH 7.4) until used.
Frozen aliquots of tau441 (8.3 mg/mL, 60 μL) in Tris-HCl (50 mM, pH 7.4) were allowed to thaw at room temperature (RT) before being diluted with Tris-HCl (2.64 mL, 50 mM, pH 7.4) containing dithiothreitol (DTT, 1 mM) to prevent disulfide bonds and NaN3 (50 μM) to prevent bacterial growth. After allowing to stand at RT for 1 h, Thioflavin S (ThS) was added (2.5 μL, 10.8 mM), followed by the aggregation inducer heparin (20 μL, 1.08 g/mL).
Aliquots (200 μL) of Aβ^1-40, Aβ^1-42, tau441 or α-synuclein with ThT or ThS were added to wells of a black polystyrene 96-well plate, followed by 2 μL of a compound in DMSO (various concentrations), or DMSO alone (controls). For α-synuclein, sodium dodecyl sulfate solution (2.0 μL, 30 mM) was also added to each well to induce aggregation. Incubations were performed in triplicate and were taken to contain 20 μM Aβ^1-40 or Aβ^1-42, 6 μM tau441 or 4 μM α-synuclein. Plates were covered with clear polystyrene lids and incubated at 37° C. in a GENios microplate reader obtained from Tecan Group Limited, Mannedorf, Zurich. For Aβ^1-40, tau441 and α-synuclein, fluorescence readings (λex=450 nm, λem=480 nm) were taken every 15 min., after first shaking at high intensity for 15 sec. and allowing to settle for 10 sec. before each reading. For Aβ^1-42, readings were taken every 5 min.
Aggregation conditions: tau441 at a concentration of either 10 μM (A) or 4 μM (B,C,D,E) was incubated in covered black 96-well polystyrene microplates alone or with 100 (A) or 50 μM compound (B,C,D,E), 5 μM ThS, pH 7.4, Tris-HCl (50 mM) containing NaN3 (50 μM), and either 1% MeOH (A) or 1% DMSO (B,C,D,E). Plates were heated at 37° C. in a Tecan GENios microplate reader. All incubations performed in triplicate, except for compound 0c in (A), which had n=1. Fluorescence readings: fluorescence measured every 15 min. (λex=450 nm, λem=480 nm) after shaking for 15 sec. and pausing 10 sec. before taking measurement. Values are the mean of three replicates. Error bars, sometimes not visible due to small size, represent standard deviation of the mean.
Aggregation conditions: tau441 at a concentration of 4 μM was incubated in covered black 96-well polystyrene microplates alone or with 50 μM (A,B,C) or 1 mM compound (D), 5 μM ThS, pH 7.4, Tris-HCl (50 mM) containing NaN3 (50 μM), and 1% DMSO. Plates were heated at 37° C. in a Tecan GENios microplate reader. All incubations performed in triplicate. Fluorescence readings: fluorescence measured every 15 min. (λex=450 nm, λem=480 nm) after shaking for 15 sec. and pausing 10 sec. before taking measurement. Values are the mean of three replicates. Error bars, sometimes not visible due to small size, represent standard deviation of the mean.

[2] = biological target: T2, Aβ1-40 (Homo sapiens, UniProt P05067); test: Aβ1-40 disaggregation assay; assay type: biochemical; settings: compound added after incubating at 37° C. for 46 hrs., ThT fluorescence
T2 construct: Aβ^1-40 (AnaSpec, San Jose, Calif., lots 14212, 34862 and 34889); purchased AnaSpec, San Jose, Calif
T2 sequence (P05067 672-711 limits assumed): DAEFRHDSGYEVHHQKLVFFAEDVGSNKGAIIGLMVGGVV
Procedure: Aβ^1-40 was allowed to aggregate under conditions described in Thioflavin T Aggregation Assay except that no DMSO was added initially. After 46 hrs., compound in DMSO or vehicle was added (2 μL) and the fluorescence measured every 15 min. as detailed above. […] FIG. 3 depicts dose-response curves for inhibition of Aβ^1-40 aggregation by 0j and positive control, morin. FIG. 4 depicts the inhibition of Aβ^1-40 aggregation by 0c in “seeded” ThT assay. FIG. 5 depicts disaggregation of Aβ^1-40 by 0c and positive control, morin. After incubating at 37° C. for 46 hrs. 0c, morin or vehicle were added as DMSO solutions (1:100) and the fluorescence measured every 15 min.

T1 sequence (P10636 1-441 isoform P10636-8): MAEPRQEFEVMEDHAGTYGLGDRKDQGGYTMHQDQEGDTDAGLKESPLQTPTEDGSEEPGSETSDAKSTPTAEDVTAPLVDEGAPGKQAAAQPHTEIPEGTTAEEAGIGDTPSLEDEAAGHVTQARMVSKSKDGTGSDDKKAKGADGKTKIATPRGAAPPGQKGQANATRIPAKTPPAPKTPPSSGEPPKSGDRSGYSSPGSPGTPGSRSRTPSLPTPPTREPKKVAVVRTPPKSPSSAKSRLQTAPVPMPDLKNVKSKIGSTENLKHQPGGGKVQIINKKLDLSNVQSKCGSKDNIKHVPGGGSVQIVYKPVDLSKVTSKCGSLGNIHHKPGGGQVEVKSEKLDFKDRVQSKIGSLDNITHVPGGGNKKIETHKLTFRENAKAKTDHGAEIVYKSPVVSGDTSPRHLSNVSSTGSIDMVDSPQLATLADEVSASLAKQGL

Compound | tau aggregation in the absence of heparin inducer [1] | disaggregation of Aβ1-40 [2] | effect on tau fibrillization (ThS fluorescence) ([1]; tau441 4 or 10 μM, 50 to 100 μM compound, 5 μM ThS, heparin inducer, pH 7.4, 37° C.)
O=C(O)c1ccc2[nH]cc(-c3c[nH]c4ccc(Br)cc34)c2c1 [0c, 3-(5-bromo-indol-3-yl)-indole-5-carboxylic Acid] | inhibited tau aggregation | disaggregation | 
O=c1c(O)c(-c2ccc(O)cc2O)oc2cc(O)cc(O)c12 [morin] | inhibited tau aggregation | disaggregation | inhibition of tau fibrillization
